Values joined by “and” are separate entries in the source; they are usually repeats but may differ in a detail not shown here. Equal entries are not always repeated. Active and inactive are the calls of the source.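 Rule for the calls: active = compounds giving half or more protection of infected cells from virus-caused growth loss, again on retest; inactive = the rest.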 Where a SMILES comes first, the peptide text is derived from it. [ ]: non-standard residue; d: D form. The star is where a group is joined. ξ: configuration not given here. ONb = O=[N+]([O-])c1ccc(CO*)cc1; NMeF = CN[CH](Cc1ccccc1)C(=O)O; ξNMe2Val = CC(C)C(C(=O)*)N(C)C; NMeV = CN[CH](C(=O)O)C(C)C; Boc = CC(C)(C)OC(=O)*; OtBu = CC(C)(C)O*
Test system: CEM cells HIV-1 protection, formazan growth assay
Test: NCI AIDS Antiviral Assay
Conditions: for IC50: measured here: growth of uninfected CEM cells
In short: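 Screen of anti-HIV-1 activity in human CEM cells using a formazan-based growth measurement at five drug concentrations. Hits with 50% or greater protection were repeated, and confirmation required reproducible complete protection.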

Row | Structure (SMILES) | EC50 [µM] | IC50 | outcome
1 | [O-][n+]1c(-c2ccccc2)oc2ccccc21 | > 9.55 | > 9.55 µM | –
2 | O=C(O)c1cnnc2ccccc12 | > 1450 | > 1450 µM | –
3 | CCSc1nc(=[N+]2CCCC2)ss1 | – | – | inactive
4 | COc1cccc(C=C2C(=O)OC(C)(C)OC2=O)c1 | – | – | inactive
5 | COc1ccccc1/C=C1\CCc2ccccc2C1=O | > 27.5 | 15.5 µM | –
6 | O=[n+]1c2c(n([O-])c3ccc4ccccc4c31)-c1cccc3cccc-2c13 | > 100 | > 100 µM | –
7 | COC(=O)N1c2c(ccc3c2OCO3)C23C4CN5CCCC(CCC12C(=O)OC)(CC4=O)C53 (stereo not given) | > 7.94 | > 7.94 µM | –
8 | C=C(C)C(CC=C(C)C)Cc1c(O)cc(OC)c2c1OC(c1ccc(O)cc1O)C(O)C2=O (stereo not given) | > 200 | 29.5 µM | –
9 | O=C1/C(=C/c2ccc(O)c([N+](=O)[O-])c2)CCC/C1=C\c1ccc(O)c([N+](=O)[O-])c1 | > 200 | 11.7 µM | –
10 | O=C(O)CC[P+](c1ccccc1)(c1ccccc1)c1ccccc1 | > 200 | 21.9 µM and > 200 µM | –
11 | c1csc([As](O[As](c2cccs2)c2cccs2)c2cccs2)c1 | > 0.2 | 0.102 µM | –
12 | CC(C)CCC[C@@H](C)C1CCC2[C@@H]3CC=C4C[C@@H](OP(=O)(O)OCCN(C)C)CC[C@]4(C)C3CC[C@@]21C (stereo not given in full) | > 87.1 | 11.7 µM | –
13 | c1ccc2c(c1)nc1n2CSC1 | – | – | inactive
14 | O=C(NN1C(=O)C(Cl)C1c1ccccc1Cl)c1ccccc1O (stereo not given) | > 14.8 | > 14.8 µM | –
15 | O=C1NCC(=O)c2ncn(C3OC(CO)C(O)C3O)c2N1 (stereo not given) | > 603 | > 603 µM | –
16 | COc1cc2c(cc1OCCN1C(=O)c3cccc4cccc(c34)C1=O)N=C[C@@H]1CCCN1C2=O | > 41.7 | 5.5 µM | –
17 | CC1(O)C(=O)OC2CC([C@]3(O)CCC4[C@@H]5C[C@H]6O[C@]67[C@@H](O)C=CC(=O)[C@]7(C)C5CC[C@@]43C)C1(C)C2 (stereo not given in full) | > 200 | 11.7 µM | –
18 | CO/C(=N\N=C(/c1ccccc1)C(F)(F)F)c1ccncc1 | > 200 | 27.5 µM | –
19 | Clc1ccc(C(c2ccccc2Cl)C(Cl)Cl)cc1 (stereo not given) | > 200 | 61.7 µM | –
20 | Cc1ccccc1NC(=O)C(=O)C1CN(c2ccccc2)N=C1N (stereo not given) | > 209 | > 209 µM | –
21 | CC(C)CC(NC(=O)OC(C)(C)C)C(=O)NC(CCC(=O)OCc1ccc([N+](=O)[O-])cc1)C(=O)OCc1ccc([N+](=O)[O-])cc1 (stereo not drawn) (Boc-Leu-Glu(ONb)-ONb; configuration not given here) | > 200 | 10.7 µM | –

Row | Structure (SMILES) | EC50 [µM] | IC50 | outcome
22 | CC(C)C(C(=O)N(C)C(Cc1ccccc1)C(=O)N(C)C(C(=O)N(C)C(C(=O)N1CCCC1C(=O)OC(C)(C)C)C(C)C)C(C)C)N(C)C (stereo not given) (ξNMe2Val-[NMeF][NMeV][NMeV]P-OtBu; configuration not given here) | 24.5 | 110 µM | –
23 | CC(C)OP(=O)(OC(C)C)C1=NN(c2ccc([N+](=O)[O-])cc2)C(N)(N)S1 | > 617 | 135 µM | –
24 | O=C1CCC(=O)c2c1c(O)c1ccncc1c2O | – | – | inactive
25 | O=c1oc2ccccc2c2nc3ccccc3cc12 | – | – | inactive
26 | O=S1(=O)CCC(Br)c2ccccc2C1 (stereo not given) | > 200 | > 200 µM | –
27 | CCC1(CC)C(=O)NC(=S)N=C1N | – | – | inactive
28 | Nc1ccc2c3c(ccc([N+](=O)[O-])c13)CC2 | > 200 | 102 µM | –
29 | Cc1cc(S(=O)(=O)O)c(NC(=O)c2oc3cc(O)ccc3c(=O)c2C)cc1Cl | > 589 | > 589 µM | –
30 | O=C1CSC(=O)N1c1ccccc1 | > 186 | > 186 µM | –
31 | NNC(=O)c1n[nH]n(N)c1=S | > 200 | > 200 µM | –
32 | Clc1c2ccccc2[se][n+]1-c1ccccc1 | > 21.9 | 11.2 µM | –
33 | COC(=O)C1=Nc2c(C)nn(-c3ccccc3)c2N=C(c2ccc(C)cc2)C1 | > 200 | > 200 µM | –
34 | CCNc1ncnc2c1ncn2C1OC(CO)CC1F (stereo not given) | > 224 | > 224 µM | –
35 | C/C=C/C=N/N(c1nnc(-c2ccccc2)c(-c2ccccc2)n1)S(=O)(=O)c1ccc(C)cc1 | > 21.4 | 7.59 µM | –
36 | CCN(C(=O)c1ccc([N+](=O)[O-])cc1)C(c1ccccc1)P(=O)(c1ccccc1)c1ccccc1 (stereo not given) | – | – | inactive
37 | COC(=O)C(NC(=O)CNC(=O)CSc1nnc(COc2ccc(Cl)cc2)n1-c1ccccc1)C(C)C (stereo not given) | > 200 | 3.63 µM | –
38 | Clc1cccc(-n2cccc2)c1 | > 200 | > 200 µM | –
39 | OC1CC[C@H](Cl)C2=C1[C@@]13C[C@]14OCCC3OC2[C@@H]4Cl (stereo not given in full) | > 427 | > 427 µM | –
40 | O=C1C=C(NC(=O)c2ccc(Cl)cc2)c2ncccc2C1=O | – | – | inactive
41 | O=C1CCCN1CC#CCN1C[C@@H]2C3CCC(C3)[C@@H]2C1 | > 200 | 170 µM | –
42 | Cc1ccc(NC(=O)/C(=N/N(C)C)C(C2OC(=O)c3ccccc32)[N+](=O)[O-])cc1 (stereo not given) | > 47.9 | > 47.9 µM | –

Row | Structure (SMILES) | EC50 [µM] | IC50 | outcome
43 | CC(C)(C)OC(=O)[C@@H]1ON2O[C@H](OC3CCCC3(c3ccccc3)c3ccccc3)C[C@H]3OC(=O)[C@@H]1[C@H]32 (stereo not given in full) | > 200 | 31.6 µM | –
44 | CN(C)CCCn1c(-c2cc(C(C)(C)C)c(O)c(C(C)(C)C)c2)csc1=Nc1ccccc1 | > 200 | 3.55 µM | –
45 | COc1cc(/C=C2/C(=O)N(C(=O)c3ccccc3O)N=C2C)cc(OC)c1OC | > 47.9 | 0.24 µM | –
46 | Cc1oc2c(c(=O)c1C)CN(Cc1ccccc1)CC2 | > 331 | 275 µM | –
47 | COC(=O)C1CCCCCCCCCCC12SCCCS2 (stereo not given) | > 200 | > 200 µM | –
48 | O=NNc1ccc(SSc2ccc(NN=O)cc2)cc1 | > 200 | 79.4 µM | –
49 | CC1=C(O[Si](C(C)C)(C(C)C)C(C)C)C2CC1[C@@H]1C(=O)N(c3ccccc3)C(=O)[C@H]21 (stereo not given in full) | > 6.46 | > 6.46 µM | –
50 | CCc1nc2cc(F)ccc2[nH]c1=O | > 200 | 132 µM | –
51 | NC(=O)c1c([N+](=O)[O-])ncn1C1OC(CO)C(F)C1O (stereo not given) | > 200 | > 200 µM | –
52 | O=C(c1cc2ccccc2[nH]1)C(O)(c1cc2ccccc2[nH]1)c1cc2ccccc2[nH]1 | > 9.33 | > 9.33 µM | –
53 | C/C(=N\OC(=O)Nc1cccc(Cl)c1)c1ccccc1 | > 200 | 32.4 µM | –
54 | O=c1ccc2ccc(O)c(O)c2o1 | > 1410 | 66.1 µM | –
55 | S=C1Cc2c([nH]c3ccccc23)-c2ccccc2N1 | > 200 | 129 µM | –
56 | N#Cc1snc2sc(=O)sc12 | > 112 | 8.71 µM | –
57 | Cc1ccc(NC(=O)/C(Cc2cc(=O)oc3cc(O)ccc23)=N\NC(C)(C)C)cc1C | > 17 | > 17 µM | –
58 | CCCCCCCCCCCC(=O)Nc1ccc(SSc2ccc(NC(=O)CCCCCCCCCCC)cc2)cc1 | > 200 | > 200 µM | –
59 | [N-]=[N+]=NC1=C(C(=O)c2ccccc2)C(=O)c2cccc3cccc1c23 | > 100 | 49 µM | –
60 | COc1ccc2c(ccc3c(C(=O)NCCN(C)CCNC(=O)c4cn(C)c5c4ccc4cc(OC)ccc45)cn(C)c32)c1 | > 200 | 1.15 µM | –
61 | COc1cc(O)c2cc1Oc1ccc(cc1)CC1=NCCc3cc(OC)c(cc31)Oc1c(OC)c(OC)c(OC)c3c1[C@H](C2)N(C)CC3 | – | – | inactive
62 | CCCC/C(=N\OC(=O)N(C)C)c1ccccc1 | > 200 | > 100 µM | –
